Columns and labels:
[1] = system: Lewis Lung carcinoma (LLC); experiment: spontaneous LLC lung metastasis model after primary tumor resection (survival); type: in vivo, mice; conditions: for mimicked the action of ketorolac in prolonging survival after primary LLC tumor resection: FR122047 20, TFAP 30, SC-560 30, indomethacin 3 mg/kg i.p., celecoxib 60 mg/kg oral gavage, FIG. 1B
Excerpt: Doses were selected based on previous publications by the present inventors and others, and/or by analogy to the human dose.

[2] = used alone; single subcutaneous injection before the resection; cited from earlier work
MMTV-PyMT breast tumor = experiment: surgery-stimulated (laparotomy) spontaneous tumor model, genetically engineered murine breast tumor model; type: in vivo; conditions: FIG. 1C
E0771 breast cancer = experiment: spontaneous E0771 breast cancer metastasis model after primary tumor resection; type: in vivo; conditions: pre-operative; FIG. 1D
B16F10 melanoma [3] = experiment: laparotomy-stimulated primary tumor dormancy escape, B16F10; type: in vivo; conditions: pre-surgical administration; 1×10^3 cells; FIG. 2A
Excerpt: (§1) (A-C) Surgery (i.e. laparotomy) stimulated primary tumor dormancy escape in a B16F10 melanoma (1×10^3 cells), Lewis lung carcinoma (LLC 1×10^4 cells), and EL4 lymphoma (1×10^4 cells). Images show representative tumors on Day 35 post-injection; Scale bar, 1 cm.
(§2) Surgery (i.e., laparotomy, which is a surgical procedure involving a large incision through the abdominal wall to gain access into the abdominal cavity, also known as a celiotomy) stimulated primary tumor dormancy escape in a B16F10 melanoma (1×10^3 cells, see Kalpainen et al., PLoS One. 2007 Feb. 28; 2(2):e260 and Panigraphy et al., J Clin Invest. 2012 January; 122(1):178-91; FIG. 2A), Lewis lung carcinoma (LLC 1×10^4 cells, FIG. 2B), and EL4 lymphoma (1×10^4 cells, FIG. 2C).

[4] = system: Lewis lung carcinoma (LLC); experiment: laparotomy-stimulated primary tumor dormancy escape, LLC; type: in vivo; conditions: pre-surgical administration; 1×10^4 cells; FIG. 2B
Excerpt: as §1, §2

EL4 lymphoma = experiment: laparotomy-stimulated primary tumor dormancy escape, EL4; type: in vivo; conditions: pre-surgical administration; 1×10^4 cells; FIG. 2C
Excerpt: as §1, §2

T241 fibrosarcoma = experiment: liver biopsy-stimulated lung metastasis post primary tumor resection; type: in vivo; conditions: pre-surgical administration; FIG. 2D
Excerpt: (D) Liver biopsy stimulated lung metastasis post primary tumor resection (T241 fibrosarcoma).
In addition, liver biopsy alone stimulated lung metastasis post primary tumor resection in a T241 fibrosarcoma model (O'Reilly et al., Cell. 1994 Oct. 21; 79(2):315-28 and Panigraphy et al., J Clin Invest. 2012 January; 122(1):178-91).

LLC [5] = experiment: LLC tumor resection in nude athymic mice; type: in vivo, nude athymic C57BL/6 mice; conditions: administered prior to LLC tumor resection; FIG. 3A
Procedure: To determine whether the effects of Ketorolac were due to actions on the immune system, the effects of ketorolac administered prior to LLC tumor resection was determined in nude athymic C57BL/6 mice, SCID mice, and Rag1 KO Mice.

human lung tumor (H460) = experiment: human lung tumor primary tumor resection in SCID mice; type: in vivo; conditions: FIG. 3B
B16F10 = experiment: laparotomy-induced tumor dormancy escape in Rag1 KO mice; type: in vivo; conditions: B16F10, 1×10^3; FIG. 3C
LLC [6] = experiment: second tumor challenge 200 days after LLC tumor resection; type: in vivo, immunocompetent mice (C57BL6); conditions: 200 days post LLC tumor resection, ketorolac preoperatively; FIG. 4A
Procedure: To determine whether perioperative COX-1 inhibition produces a durable immune response to the cancer, immunocompetent mice (C57BL6) at 200 days after undergoing LLC tumor resection during which they were administered ketorolac preoperatively, were given a second tumor challenge with the same tumor types (LLC).

B16F10 melanoma [7] = experiment: third tumor challenge with a different tumor-type; type: in vivo, immunocompetent mice (C57BL6); conditions: same mice, FIG. 4A
LLC [8] = experiment: LLC tumor resection in WT and COX-2 KO mice (metastasis); type: in vivo; conditions: administered prior to surgery, FIG. 4B
LLC tumor cells = experiment: Hematoxylin & Eosin analysis of lungs after LLC tumor resection; type: in vivo, mice; conditions: 240 days post-surgery; i.p. 7.5 mg/kg 2 hours prior to surgery; abundant LLC tumor cells at Day 0
Excerpt: Representative micrographs of 4 different mice per group (total of 10 mice/group).

prostate cancer = conditions: after radical prostatectomy for prostate cancer; retrospective; cited from earlier work
[9] = human, in vivo; cited from earlier work
[10] = in vivo; cited from earlier work

## COc1ccc(-c2nc(C(=O)N3CCN(C)CC3)sc2-c2ccc(OC)cc2)cc1.Cl [FR122047, 1-[[4,5-bis(4-Methoxyphenyl)-2-thiazolyl]carbonyl]-4-methylpiperazine hydrochloride]
[1]
  mimicked the action of ketorolac in prolonging survival after primary LLC tumor resection: mimicked the action of ketorolac

## Nc1ccc(NC(=O)c2ccc(C(F)(F)F)cc2)nc1 [TFAP, N-(5-amino-2-pyridinyl)-4-trifluoromethylbenzamide]
[1]
  mimicked the action of ketorolac in prolonging survival after primary LLC tumor resection: mimicked the action of ketorolac

## CCc1cccc2c3c([nH]c12)C(CC)(CC(=O)O)OCC3 (centres unmarked) [etodolac]
[2]
  spontaneous postoperative metastasis: did not prevent spontaneous postoperative metastasis

## O=C(c1ccccc1)c1ccc2n1CCC2C(=O)O (centres unmarked) [ketorolac, ketorolac tromethamine]
[1]; 180 to 200 days, micrometastasis present on day of tumor resection
  tumor micrometastasis by immunohistochemistry: no evidence of tumor micrometastasis
[1]; pre-operative (2 hrs prior to surgery), ketorolac 7.5 mg/kg I.P., celecoxib 30 mg/kg bid po, FIG. 1A
  survival after primary tumor resection: prolonged survival
[1]; pre-operative, syngeneic LLC lung cancer model
  "cured" (long term survival): approximately 50 % of mice
MMTV-PyMT breast tumor
  survival: prolonged survival
E0771 breast cancer
  survival after primary tumor resection: prolonged survival
B16F10 melanoma [3]
  surgery-induced tumor dormancy escape: inhibited surgery-induced tumor dormancy escape
[4]
  surgery-induced tumor dormancy escape: inhibited surgery-induced tumor dormancy escape
EL4 lymphoma
  surgery-induced tumor dormancy escape: inhibited surgery-induced tumor dormancy escape
T241 fibrosarcoma
  biopsy-stimulated lung metastasis: inhibited this biopsy-stimulated lung metastasis
LLC [5]
  anti-metastatic activity: did not have anti-metastatic activity
Human lung tumor (H460)
  metastases after primary tumor resection: did not inhibit metastases
B16F10
  laparotomy-induced tumor dormancy escape: did not inhibit laparotomy-induced tumor dormancy escape
LLC [6]
  response to second tumor challenge (LLC): resisted a second tumor challenge
B16F10 melanoma [7]
  response to third tumor challenge (B16F10 melanoma): exhibited rapid tumor growth
LLC [8]; COX-2 knockout (KO) mice
  tumor metastasis: prevented tumor metastasis
LLC [8]; WT mice
  tumor metastasis: prevented tumor metastasis
LLC tumor cells
  tumor cells in lungs (Hematoxylin & Eosin): no tumor cells were detectable
Prostate cancer
  benefit of perioperative use: no benefit
[9]
  major side effect: increased bleeding time

## CN1CC[C@]23c4c5ccc(O)c4O[C@H]2[C@@H](O)C=C[C@H]3[C@H]1C5 [morphine]
[10]
  effect on angiogenesis, tumor cell proliferation, primary tumor growth and metastasis: stimulates angiogenesis, tumor cell proliferation, primary tumor growth and metastasis

From patent US20190290614A1, “Methods for Reducing Recurrence of Tumors” (Beth Israel Deaconess Medical Center, Inc., priority 2016, published 2019)
